Measurements taken from patent publication US20260317340A1, “COMPOUNDS, COMPOSITIONS, AND METHODS OF TREATING DISORDERS” (Chengdu Anticancer Bioscience, Ltd., priority 2023, published 2026).
Where two headings read alike, the source gives them in different places.

Experiments:
[1] = system: RPE-Neo or RPE-MYC or RPE-MYC expressing an EGFP-Histone 2B fusion protein; experiment: Phenotypic screening assay: arrest in mitosis, change in DNA content (polyploidy), cell death; assay type: cell-based; details: 20 nM to 20 μM, 24, 48 or 72 hours
Method in brief: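 RPE-Neo, RPE-MYC or RPE-MYC EGFP-H2B cells plated 18-24 h before treatment with compounds at 20 nM to 20 μM. Mitotic arrest or DNA-content change scored by automated imaging at 24, 48 or 72 h; proliferation by MTT. Values binned into A–D ranges.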

[2] = system: RPE-Neo or RPE-MYC cells; experiment: MTT assay of cellular proliferation (proliferative arrest); assay type: cell-based; details: read-out: Min. Effective conc. for Proliferative arrest (>50%)
[3] = read-out: Min. Effective conc. for Along with Cell Death
[4] = ≥5%, read-out: Min. Effective conc. for Mitotic Arrest (≥5%)
[5] = ≥5%, read-out: Min. Effective conc. for Polyploidy (≥5%)

| SMILES | minimal effective concentration [1, 3] [µM] | minimal effective concentration [1, 4] [µM] | minimal effective concentration [1, 5] [µM] | minimal effective concentration [2] [µM] |
| --- | --- | --- | --- | --- |
| Cc1ccc(CN2C(=O)CC(c3nnc(C4CC4)o3)=Cc3ccccc32)cc1F [Compound 13, 4-(5-cyclopropyl-1,3,4-oxadiazol-2-yl)-1-(3-fluoro-4-methylbenzyl)-1,3-dihydro-2H-benzo[b]azepin-2-one] | 0.001 to 1 | 0.001 to 1 | 0.001 to 1 | 0.001 to 1 |
| COc1ccc(CN2C(=O)CC(c3ncc(C)o3)=Cc3ccc(-c4cnn(C(C)=O)c4)cc32)cc1 [Compound 81, 8-(1-Acetyl-1H-pyrazol-4-yl)-1-(4-methoxybenzyl)-4-(5-methyloxazol-2-yl)-1,3-dihydro-2H-benzo[b]azepin-2-one] | 0.001 to 1 | 0.001 to 1 | 0.001 to 1 | 0.001 to 1 |
| COc1ccc(CN2C(=O)CC(c3ncc(C)o3)=C(Br)c3ccccc32)cc1 [Compound 11, 5-Bromo-1-(4-methoxybenzyl)-4-(5-methyloxazol-2-yl)-1,3-dihydro-2H-benzo[b]azepin-2-one] | 0.001 to 1 | 0.001 to 1 | 0.001 to 1 | 0.001 to 1 |
| COc1ccc(CN2C(=O)CC(c3ncc(C)o3)=Cc3ccc(-c4cnn(C5(CC#N)CN(S(=O)(=O)C6CC6)C5)c4)cc32)cc1 [Compound 89, 2-(1-(Cyclopropylsulfonyl)-3-(4-(1-(4-methoxybenzyl)-4-(5-methyloxazol-2-yl)-2-oxo-2,3-dihydro-1H-benzo[b]azepin-8-yl)-1H-pyrazol-1-yl)azetidin-3-yl)acetonitrile] | 0.001 to 1 | 0.001 to 1 | 0.001 to 1 | 0.001 to 1 |
| COc1ccc(CN2C(=O)CC(c3nc(C4CC4)no3)=Cc3ccc(-c4cnn(CC(C)(C)O)c4)cc32)cc1 [Compound 95, 4-(3-cyclopropyl-1,2,4-oxadiazol-5-yl)-8-(1-(2-hydroxy-2-methylpropyl)-1H-pyrazol-4-yl)-1-(4-methoxybenzyl)-1,3-dihydro-2H-benzo[b]azepin-2-one] | 0.001 to 1 | 0.001 to 1 | 0.001 to 1 | 0.001 to 1 |
| COc1ccc(CN2C(=O)CC(c3ncc(C)o3)=Cc3ccc(Br)cc32)cc1 [Compound 25, 8-bromo-1-(4-methoxybenzyl)-4-(5-methyloxazol-2-yl)-1,3-dihydro-2H-benzo[b]azepin-2-one] | 0.001 to 1 | 0.001 to 1 | 0.001 to 1 | 0.001 to 1 |
| COC(=O)C1=Cc2ccccc2N(Cc2ccc(C)c(F)c2)C(=O)C1 [Compound 12, methyl 1-(3-fluoro-4-methylbenzyl)-2-oxo-2,3-dihydro-1H-benzo[b]azepine-4-carboxylate] | 0.001 to 1 | 0.001 to 1 | 0.001 to 1 | 0.001 to 1 |
| COc1ccc(C(=O)N2CCC(c3ncc(C)o3)=Cc3ccc(-c4cnn(CC(C)(C)O)c4)cc32)cc1F [Compound 106, (3-Fluoro-4-methoxyphenyl)(8-(1-(2-hydroxy-2-methylpropyl)-1H-pyrazol-4-yl)-4-(5-methyloxazol-2-yl)-2,3-dihydro-1H-benzo[b]azepin-1-yl)methanone] | 0.001 to 1 | 0.001 to 1 | 0.001 to 1 | 0.001 to 1 |
| COc1ccc(CN2C(=O)CC(c3ncc(C)o3)=Cc3ccc(-c4cncnc4)cc32)cc1 [Compound 46, 1-(4-methoxybenzyl)-4-(5-methyloxazol-2-yl)-8-(pyrimidin-5-yl)-1,3-dihydro-2H-benzo[b]azepin-2-one] | 0.001 to 1 | 0.001 to 1 | 0.001 to 1 | 0.001 to 1 |
| COc1ccc(CN2C(=O)CC(c3ncc(C)o3)=Cc3ccc(-c4cnn(C5CCNCC5)c4)cc32)cc1 [Compound 35, 1-(4-methoxybenzyl)-4-(5-methyloxazol-2-yl)-8-(1-(piperidin-4-yl)-1H-pyrazol-4-yl)-1,3-dihydro-2H-benzo[b]azepin-2-one] | 0.001 to 1 | 0.001 to 1 | 0.001 to 1 | 0.001 to 1 |
| COc1ccc(CN2C(=O)CC(c3nnco3)=Cc3ccc(-c4cnn(CC(C)(C)O)c4)cc32)cc1 [Compound 98, 8-(1-(2-Hydroxy-2-methylpropyl)-1H-pyrazol-4-yl)-1-(4-methoxybenzyl)-4-(1,3,4-oxadiazol-2-yl)-1,3-dihydro-2H-benzo[b]azepin-2-one] | 0.001 to 1 | 0.001 to 1 | 0.001 to 1 | 0.001 to 1 |
| COc1ccc(CN2C(=O)CC(c3ncc(C)o3)=Cc3ccc(-c4ccsc4)cc32)cc1 [Compound 28, 1-(4-methoxybenzyl)-4-(5-methyloxazol-2-yl)-8-(thiophen-3-yl)-1,3-dihydro-2H-benzo[b]azepin-2-one] | 0.001 to 1 | 0.001 to 1 | 0.001 to 1 | 0.001 to 1 |
| Cc1cnc(C2=Cc3ccc(-c4cnn(CC(C)(C)O)c4)cc3N(Cc3ccc(C)c(F)c3)C(=O)C2)o1 [Compound 101, 1-(3-fluoro-4-methylbenzyl)-8-(1-(2-hydroxy-2-methylpropyl)-1H-pyrazol-4-yl)-4-(5-methyloxazol-2-yl)-1,3-dihydro-2H-benzo[b]azepin-2-one] | 0.001 to 1 | 0.001 to 1 | 0.001 to 1 | 0.001 to 1 |
| COc1ccc(CN2C(=O)CC(c3ncc(C)o3)=Cc3ccc(-c4cnn(CC(=O)N(C)C)c4)cc32)cc1 [Compound 73, 2-(4-(1-(4-Methoxybenzyl)-4-(5-methyloxazol-2-yl)-2-oxo-2,3-dihydro-1H-benzo[b]azepin-8-yl)-1H-pyrazol-1-yl)-N,N-dimethylacetamide] | 0.001 to 1 | 0.001 to 1 | 0.001 to 1 | 0.001 to 1 |
| COc1ccc(CN2C(=O)CC(c3ncc(C)o3)=Cc3ccc(-c4cnn(C(C)(C)C#N)c4)cc32)cc1 [Compound 86, 2-(4-(1-(4-Methoxybenzyl)-4-(5-methyloxazol-2-yl)-2-oxo-2,3-dihydro-1H-benzo[b]azepin-8-yl)-1H-pyrazol-1-yl)-2-methylpropanenitrile] | 0.001 to 1 | 0.001 to 1 | 0.001 to 1 | 0.001 to 1 |
| Cc1cnc(C2=Cc3ccc(-c4cn[nH]c4)cc3N(Cc3ccc(C)c(F)c3)C(=O)C2)o1 [Compound 22, 1-(3-fluoro-4-methylbenzyl)-4-(5-methyloxazol-2-yl)-8-(1H-pyrazol-4-yl)-1,3-dihydro-2H-benzo[b]azepin-2-one] | 0.001 to 1 | 0.001 to 1 | 0.001 to 1 | 0.001 to 1 |
| COc1ccc(CN2C(=O)CC(c3ncc(C)o3)=Cc3ccc(-c4ccnc(N)c4)cc32)cc1 [Compound 55, 8-(2-Aminopyridin-4-yl)-1-(4-methoxybenzyl)-4-(5-methyloxazol-2-yl)-1,3-dihydro-2H-benzo[b]azepin-2-one] | 0.001 to 1 | 0.001 to 1 | 0.001 to 1 | 0.001 to 1 |
| COc1ccc(CN2C(=O)CC(c3ccon3)=C(Br)c3ccccc32)cc1 [Compound 8, 5-Bromo-4-(isoxazol-3-yl)-1-(4-methoxybenzyl)-1,3-dihydro-2H-benzo[b]azepin-2-one] | 0.001 to 1 | 0.001 to 1 | 0.001 to 1 | 0.001 to 1 |
| [2H]C([2H])([2H])OCCCn1cc(-c2ccc3c(c2)N(Cc2ccc(OC)cc2)C(=O)CC(c2ncc(C)o2)=C3)cn1 [Compound 77, 8-(1-(3-(Methoxy-d3)propyl)-1H-pyrazol-4-yl)-1-(4-methoxybenzyl)-4-(5-methyloxazol-2-yl)-1,3-dihydro-2H-benzo[b]azepin-2-one] | 0.001 to 1 | 0.001 to 1 | 0.001 to 1 | 0.001 to 1 |
| COc1ccc(CN2C(=O)CC(c3nnc(C4CC4)o3)=C(Br)c3cccc(F)c32)cc1 [Compound 4, 5-bromo-4-(5-cyclopropyl-1,3,4-oxadiazol-2-yl)-9-fluoro-1-(4-methoxybenzyl)-1,3-dihydro-2H-benzo[b]azepin-2-one] | 0.001 to 1 | 0.001 to 1 | 0.001 to 1 | 0.001 to 1 |
| COc1ccc(CN2C(=O)CC(c3ncc(C)o3)=Cc3ccc(-c4ccc(OC)nc4)cc32)cc1 [Compound 44, 1-(4-methoxybenzyl)-8-(6-methoxypyridin-3-yl)-4-(5-methyloxazol-2-yl)-1,3-dihydro-2H-benzo[b]azepin-2-one] | 0.001 to 1 | 0.001 to 1 | 0.001 to 1 | 0.001 to 1 |
| Cc1ccc(CN2C(=O)CC(c3nnc(C4CC4)o3)=C(Br)c3ccc(OCCOCCOCCOc4ccc5c(c4)N(Cc4ccc(C)c(F)c4)C(=O)CC(c4nnc(C6CC6)o4)=C5Br)cc32)cc1F [Compound 3, 8,8′-(((Ethane-1,2-diylbis(oxy))bis(ethane-2,1-diyl))bis(oxy))bis(5-bromo-4-(5-cyclopropyl-1,3,4-oxadiazol-2-yl)-1-(3-fluoro-4-methylbenzyl)-1,3-dihydro-2H-benzo[b]azepin-2-one)] | 1 to 10 | 1 to 10 | 1 to 10 | 1 to 10 |
